# Experimental data reported in patent US5776901A, “Polypeptide analogues having growth hormone releasing activity” (Administrators of the Tulane Educational Fund, priority 1992, dated 1998).
# Values joined by “and” are separate entries in the source; they are usually repeats but may differ in a detail not shown here. Equal entries are not always repeated.
# Columns and labels:
# [1] = tested on: serum growth hormone (GH); test: In vivo GH release in pentobarbital anesthetized rats, i.v. injection; parameters: species or system rat; conditions: sacrificed 10 min after injection, N = 6
# Experimental: (§1) Immature female Sprague-Dawley rats were obtained from the Charles River Laboratories (Wilmington, Mass.). After arrival they were housed at 25° C. with a 14:10 hour light:dark cycle. Water and Purina rat chow were available ad libitum. Pups were kept with their mothers until 21 days of age.
# (§2) Twenty-six day old rats, six rats per treatment group, were anesthetized interperitoneally with 50 mg/kg of pentobarbital 20 minutes prior to i.v. treatment with peptide. Normal saline with 0.1% gelatin was the vehicle for intravenous (i.v.) injections of the peptides. The anesthetized rats, weighing 55-65 grams, were injected i.v. with the quantity of growth hormone releasing compounds indicated in Table 3. Injection was made as a 0.1 mL solution into the jugular vein.
# (§3) All animals were sacrificed by guillotine 10 minutes after the final test injection (see Table 3). Trunk blood for the determination of blood GH levels was collected following decapitation. After allowing the blood to clot, it was centrifuged and the serum was separated from the clot. Serum was kept frozen until the day of sampling for radioimmunoassay (RIA) determination of growth hormone levels according to the following procedure, as developed by the National Institute of Arthritis, Diabetes and Digestive and Kidney Diseases (NIADDK).
# Reagents are generally added to the RIA analysis tubes at a single sitting, at refrigerator temperature (about 4° C.) in the following sequence:
# (b) "cold" (i.e., non-radioactive) standard or unknown serum sample to be analyzed,
# (c) radio-iodinated growth hormone antigen, and
# (d) growth hormone antiserum.
# Reagent addition is generally carried out so that there is achieved a final RIA tube dilution of about 1:30,000 (antiserum to total liquid volume; vol:vol).
# (§4) The mixed reagents are then typically incubated at room temperature (about 25° C.) for about 24 hours prior to addition of a second antibody (e.g., goat or rabbit anti-monkey gamma globulin serum) which binds to and causes precipitation of the complexed growth hormone antiserum. Precipitated contents of the RIA tubes are then analyzed for the number of counts in a specified period of time in a gamma scintillation counter. A standard curve is prepared by plotting number of radioactive counts versus growth hormone (GH) level. GH levels of unknowns are then determined by reference to the standard curve.
# (§5) Serum GH was measured by RIA with reagents provided by the National Hormone and Pituitary Program.
# Serum levels in Table 3 are recorded in ng/mL in terms of the rat GH standard of 0.61 International Units/mg (IU/mg). Data is recorded as the mean +/- standard error of the mean (SEM). Statistical analysis was performed with Student's t-test. In Table 3 the results shown are the average of studies with six rats.
# The procedure of Example 2 was repeated.
# [2] = tested on: serum growth hormone (GH); test: In vivo GH release in rats, subcutaneous injection, sacrifice at +15 minutes; parameters: species or system rat; conditions: Table 7, sacrifice +15 minutes, N = 6
# Experimental: as §1, §2, §3, §4, §5
# The general procedure of Example 2 was followed except the peptides were injected subcutaneously rather than intravenously and the sacrifice time was +15 minutes rather than +10 minutes.
# [3] = Table 5, total dose 0.10 μg i.v.
# [4] = Table 5, total dose 0.30 μg i.v.
# [5] = Table 5, total dose 1.00 μg i.v.
# [6] = Table 6, total dose 0.30 μg i.v.
# [7] = Table 6, total dose 1.00 μg i.v.
# [8] = Table 5, total dose 3.00 μg i.v.
substance,measurement,setting,value
3Me-His-DβNal-Ala-Trp-DPhe-Lys-NH2,GH Released Serum GH,"[1]; Table 5, total dose 0.03 μg i.v.",122 ng/mL and 134 ng/mL
same,GH Released Serum GH,[1]; [3],185 ng/mL and 112 ng/mL and 159 ng/mL
same,GH Released Serum GH,[1]; [4],101 ng/mL and 78 ng/mL
same,GH Released Serum GH,[1]; [5],134 ng/mL
DAla-DμNal-Ala-Trp-LysNH2,GH Released Serum GH,[1]; [6],187 ng/mL
same,GH Released Serum GH,[1]; [7],257 ng/mL
same,GH Released Serum GH,"[1]; Table 6, total dose 3.00 μg i.v.",198 ng/mL
same,GH Released Serum GH,"[1]; Table 6, total dose 10.00 μg i.v.",193 ng/mL
same,GH Released Serum GH,"[1]; Table 6, total dose 30.00 μg i.v.",236 ng/mL
DAla-Tcc-Ala-Trp-DPhe-Lys-NH2,GH Released Serum GH,[1]; [4],149 ng/mL
same,GH Released Serum GH,[1]; [8],142 ng/mL
Tip-Ala-DβNal-Ala-Trp-DPhe-Lys-NH2,GH Released Serum GH,[1]; [3],168 ng/mL
same,GH Released Serum GH,[1]; [4],167 ng/mL
same,GH Released Serum GH,[1]; [5],152 ng/mL
same,GH Released Serum GH,[1]; [8],272 ng/mL
"α,γABU-DβNal-Ala-Trp-DPhe-LysNH2",GH Released Serum GH,"[1]; Table 6, total dose 0.03 μg i.v.",621 ng/mL
same,GH Released Serum GH,"[1]; Table 6, total dose 0.10 μg i.v.",1230 ng/mL
same,GH Released Serum GH,[1]; [6],2385 ng/mL
same,GH Released Serum GH,[1]; [7],3011 ng/mL
αγABU-DβNal-Ala-Phe-DPhe-Lys-NH2,GH Released Serum GH + SEM,[2]; total dose 1.00 μg s.c.,1441 ± 203 ng/mL
same,GH Released Serum GH + SEM,[2]; total dose .03 μg s.c.,192 ± 29 ng/mL
same,GH Released Serum GH + SEM,[2]; total dose .10 μg s.c.,288 ± 62 ng/mL
same,GH Released Serum GH + SEM,[2]; total dose .30 μg s.c.,461 ± 90 ng/mL
γABU-DβNal-Ala-Phe-DPhe-Lys-NH2,GH Released Serum GH + SEM,[2]; total dose 1.00 μg s.c.,1127 ± 110 ng/mL
same,GH Released Serum GH + SEM,[2]; total dose .03 μg s.c.,197 ± 31 ng/mL
same,GH Released Serum GH + SEM,[2]; total dose .10 μg s.c.,182 ± 20 ng/mL
same,GH Released Serum GH + SEM,[2]; total dose .30 μg s.c.,524 ± 116 ng/mL
